Experimental data taken from ChEMBL document CHEMBL3885881, “DrugMatrix”.

Organism: Rattus norvegicus
Experiment: DrugMatrix - Regimen: Daily Repeat
Format: toxicity, organism-based, Sprague-Dawley
Design: regimen Daily Repeat, gender Male, age 6-8 weeks
Details: in vivo, po, route oral GAVAGE, […]; for ABSOLUTE BASOPHIL / ABSOLUTE EOSINOPHIL / ABSOLUTE LYMPHOCYTE / ABSOLUTE MONOCYTE / ABSOLUTE SEGMENTED NEUTROPHIL / BASOPHIL / EOSINOPHIL / ERYTHROCYTE COUNT / HEMATOCRIT / HEMOGLOBIN / LEUKOCYTE COUNT / LYMPHOCYTE / MEAN CORPUSCULAR HEMOGLOBIN / MEAN CORPUSCULAR HEMOGLOBIN CONCENTRATION / MEAN CORPUSCULAR VOLUME / MONOCYTE / NEUTROPHIL / NUCLEATED RED BLOOD CELLS / PLATELET COUNT: tissue Blood; for ALANINE AMINOTRANSFERASE / ALBUMIN / ALKALINE PHOSPHATASE / ASPARTATE AMINOTRANSFERASE / BLOOD UREA NITROGEN / CARBON DIOXIDE / CHLORIDE / CHOLESTEROL / CREATINE PHOSPHOKINASE / CREATININE / GLUCOSE / LACTATE DEHYDROGENASE / LIPASE / PHOSPHORUS / POTASSIUM / SODIUM / TOTAL BILIRUBIN / TOTAL PROTEIN: tissue Plasma
[1] = 20 mg/kg, 72 h, dose level Low, time 3 day
[2] = 20 mg/kg, 120 h, dose level Low, time 5 day
[3] = 210 mg/kg, 72 h, dose level High, time 3 day
[4] = 210 mg/kg, 120 h, dose level High, time 5 day

SMILES: CN[C@H]1CC[C@@H](c2ccc(Cl)c(Cl)c2)c2ccccc21 [SERTRALINE]
- ABSOLUTE BASOPHIL [1]: 0 CELLS/uL
- ABSOLUTE EOSINOPHIL [1]: 28.33 CELLS/uL
- ABSOLUTE LYMPHOCYTE [1]: 10624.33 CELLS/uL
- ABSOLUTE MONOCYTE [1]: 86.67 CELLS/uL
- ABSOLUTE SEGMENTED NEUTROPHIL [1]: 1294 CELLS/uL
- BASOPHIL [1]: 0%
- EOSINOPHIL [1]: 0.33%
- ERYTHROCYTE COUNT [1]: 5.85 x10E6/uL
- HEMATOCRIT [1]: 36.57%
- HEMOGLOBIN [1]: 14.27 G/DL
- LEUKOCYTE COUNT [1]: 12.03 x10E3/uL
- LYMPHOCYTE [1]: 87.67%
- MEAN CORPUSCULAR HEMOGLOBIN [1]: 24.37 pg
- MEAN CORPUSCULAR HEMOGLOBIN CONCENTRATION [1]: 39.03 G/DL
- MEAN CORPUSCULAR VOLUME [1]: 62.47 fL
- MONOCYTE [1]: 0.67%
- NEUTROPHIL [1]: 11.33%
- NUCLEATED RED BLOOD CELLS [1]: 0 /100WBC
- PLATELET COUNT [1]: 1161.67 x10E3/uL
- ALANINE AMINOTRANSFERASE [1]: 70.33 u/L
- ALBUMIN [1]: 4.23 G/DL
- ALKALINE PHOSPHATASE [1]: 384.33 u/L
- ASPARTATE AMINOTRANSFERASE [1]: 83.33 u/L
- BLOOD UREA NITROGEN [1]: 14 mg/dL
- CARBON DIOXIDE [1]: 29.67 mmol/L
- CHLORIDE [1]: 103 MEQ/L
- CHOLESTEROL [1]: 79 mg/dL
- CREATINE PHOSPHOKINASE [1]: 163 u/L
- CREATININE [1]: 0.23 mg/dL
- GLUCOSE [1]: 158 mg/dL
- LACTATE DEHYDROGENASE [1]: 155 u/L
- LIPASE [1]: 11 u/L
- PHOSPHORUS [1]: 12.33 mg/dL
- POTASSIUM [1]: 6.97 MEQ/L
- SODIUM [1]: 147.8 MEQ/L
- TOTAL BILIRUBIN [1]: 0.17 mg/dL
- TOTAL PROTEIN [1]: 5.57 G/DL
- ABSOLUTE BASOPHIL [2]: 0 CELLS/uL
- ABSOLUTE EOSINOPHIL [2]: 46.67 CELLS/uL
- ABSOLUTE LYMPHOCYTE [2]: 12898.33 CELLS/uL
- ABSOLUTE MONOCYTE [2]: 0 CELLS/uL
- ABSOLUTE SEGMENTED NEUTROPHIL [2]: 955 CELLS/uL
- BASOPHIL [2]: 0%
- EOSINOPHIL [2]: 0.33%
- ERYTHROCYTE COUNT [2]: 5.71 x10E6/uL
- HEMATOCRIT [2]: 34.57%
- HEMOGLOBIN [2]: 13.57 G/DL
- LEUKOCYTE COUNT [2]: 13.9 x10E3/uL
- LYMPHOCYTE [2]: 92.33%
- MEAN CORPUSCULAR HEMOGLOBIN [2]: 23.83 pg
- MEAN CORPUSCULAR HEMOGLOBIN CONCENTRATION [2]: 39.27 G/DL
- MEAN CORPUSCULAR VOLUME [2]: 60.73 fL
- MONOCYTE [2]: 0%
- NEUTROPHIL [2]: 7.33%
- NUCLEATED RED BLOOD CELLS [2]: 0 /100WBC
- PLATELET COUNT [2]: 913 x10E3/uL
- ALANINE AMINOTRANSFERASE [2]: 60.33 u/L
- ALBUMIN [2]: 4.27 G/DL
- ALKALINE PHOSPHATASE [2]: 427 u/L
- ASPARTATE AMINOTRANSFERASE [2]: 85 u/L
- BLOOD UREA NITROGEN [2]: 13.67 mg/dL
- CARBON DIOXIDE [2]: 25.33 mmol/L
- CHLORIDE [2]: 103.33 MEQ/L
- CHOLESTEROL [2]: 77.67 mg/dL
- CREATINE PHOSPHOKINASE [2]: 211 u/L
- CREATININE [2]: 0.18 mg/dL
- GLUCOSE [2]: 164.33 mg/dL
- LACTATE DEHYDROGENASE [2]: 121.33 u/L
- LIPASE [2]: 10.33 u/L
- PHOSPHORUS [2]: 12.77 mg/dL
- POTASSIUM [2]: 7.01 MEQ/L
- SODIUM [2]: 147.5 MEQ/L
- TOTAL BILIRUBIN [2]: 0.2 mg/dL
- TOTAL PROTEIN [2]: 5.9 G/DL
- ABSOLUTE BASOPHIL [3]: 0 CELLS/uL
- ABSOLUTE EOSINOPHIL [3]: 0 CELLS/uL
- ABSOLUTE LYMPHOCYTE [3]: 11258 CELLS/uL
- ABSOLUTE MONOCYTE [3]: 82.33 CELLS/uL
- ABSOLUTE SEGMENTED NEUTROPHIL [3]: 1226.33 CELLS/uL
- BASOPHIL [3]: 0%
- EOSINOPHIL [3]: 0%
- ERYTHROCYTE COUNT [3]: 6.22 x10E6/uL
- HEMATOCRIT [3]: 39.43%
- HEMOGLOBIN [3]: 15.5 G/DL
- LEUKOCYTE COUNT [3]: 12.57 x10E3/uL
- LYMPHOCYTE [3]: 89.67%
- MEAN CORPUSCULAR HEMOGLOBIN [3]: 24.93 pg
- MEAN CORPUSCULAR HEMOGLOBIN CONCENTRATION [3]: 39.33 G/DL
- MEAN CORPUSCULAR VOLUME [3]: 63.33 fL
- MONOCYTE [3]: 0.67%
- NEUTROPHIL [3]: 9.67%
- NUCLEATED RED BLOOD CELLS [3]: 0 /100WBC
- PLATELET COUNT [3]: 1225 x10E3/uL
- ALANINE AMINOTRANSFERASE [3]: 53.67 u/L
- ALBUMIN [3]: 4.33 G/DL
- ALKALINE PHOSPHATASE [3]: 460.67 u/L
- ASPARTATE AMINOTRANSFERASE [3]: 112 u/L
- BLOOD UREA NITROGEN [3]: 16 mg/dL
- CARBON DIOXIDE [3]: 28.33 mmol/L
- CHLORIDE [3]: 101.33 MEQ/L
- CHOLESTEROL [3]: 55.33 mg/dL
- CREATINE PHOSPHOKINASE [3]: 286.67 u/L
- CREATININE [3]: 0.22 mg/dL
- GLUCOSE [3]: 117.33 mg/dL
- LACTATE DEHYDROGENASE [3]: 163.33 u/L
- LIPASE [3]: 10.33 u/L
- PHOSPHORUS [3]: 11.53 mg/dL
- POTASSIUM [3]: 6.21 MEQ/L
- SODIUM [3]: 146.43 MEQ/L
- TOTAL BILIRUBIN [3]: 0.1 mg/dL
- TOTAL PROTEIN [3]: 5.97 G/DL
- ABSOLUTE BASOPHIL [4]: 0 CELLS/uL
- ABSOLUTE EOSINOPHIL [4]: 207 CELLS/uL
- ABSOLUTE LYMPHOCYTE [4]: 18574.33 CELLS/uL
- ABSOLUTE MONOCYTE [4]: 70.33 CELLS/uL
- ABSOLUTE SEGMENTED NEUTROPHIL [4]: 1848.33 CELLS/uL
- BASOPHIL [4]: 0%
- EOSINOPHIL [4]: 1%
- ERYTHROCYTE COUNT [4]: 6.11 x10E6/uL
- HEMATOCRIT [4]: 37.3%
- HEMOGLOBIN [4]: 14.97 G/DL
- LEUKOCYTE COUNT [4]: 20.7 x10E3/uL
- LYMPHOCYTE [4]: 89.67%
- MEAN CORPUSCULAR HEMOGLOBIN [4]: 24.53 pg
- MEAN CORPUSCULAR HEMOGLOBIN CONCENTRATION [4]: 40.13 G/DL
- MEAN CORPUSCULAR VOLUME [4]: 61.1 fL
- MONOCYTE [4]: 0.33%
- NEUTROPHIL [4]: 9%
- NUCLEATED RED BLOOD CELLS [4]: 0 /100WBC
- PLATELET COUNT [4]: 1278.33 x10E3/uL
- ALANINE AMINOTRANSFERASE [4]: 67 u/L
- ALBUMIN [4]: 4.07 G/DL
- ALKALINE PHOSPHATASE [4]: 368.33 u/L
- ASPARTATE AMINOTRANSFERASE [4]: 101.67 u/L
- BLOOD UREA NITROGEN [4]: 18 mg/dL
- CARBON DIOXIDE [4]: 26 mmol/L
- CHLORIDE [4]: 102.67 MEQ/L
- CHOLESTEROL [4]: 74 mg/dL
- CREATINE PHOSPHOKINASE [4]: 255.33 u/L
- CREATININE [4]: 0.23 mg/dL
- GLUCOSE [4]: 153 mg/dL
- LACTATE DEHYDROGENASE [4]: 287.33 u/L
- LIPASE [4]: 10 u/L
- PHOSPHORUS [4]: 12.3 mg/dL
- POTASSIUM [4]: 6.87 MEQ/L
- SODIUM [4]: 146.47 MEQ/L
- TOTAL BILIRUBIN [4]: 0.13 mg/dL
- TOTAL PROTEIN [4]: 5.9 G/DL
